pKd: −log10 of the molar value.
Target: T1, hSWS1-SWSAP1 (human Shu complex) (Homo sapiens, UniProt Q6NVH7)
T1 construct: heterodimer co-expressed in High Five insect cells (baculovirus); SWSAP1 with TEV-cleavable N-terminal 6xHis tag (cleaved), SWS1 untagged; with Zinc finger SWIM domain-containing protein 7
T1 sequence (Q6NVH7 22-250): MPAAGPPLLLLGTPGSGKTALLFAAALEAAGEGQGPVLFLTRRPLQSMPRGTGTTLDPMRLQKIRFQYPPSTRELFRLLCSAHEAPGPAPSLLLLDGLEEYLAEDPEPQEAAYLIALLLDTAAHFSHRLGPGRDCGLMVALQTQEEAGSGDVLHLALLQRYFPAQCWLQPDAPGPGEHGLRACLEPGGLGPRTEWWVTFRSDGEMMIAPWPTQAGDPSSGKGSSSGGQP
T1 sequence (Q19AV6 1-140 partner): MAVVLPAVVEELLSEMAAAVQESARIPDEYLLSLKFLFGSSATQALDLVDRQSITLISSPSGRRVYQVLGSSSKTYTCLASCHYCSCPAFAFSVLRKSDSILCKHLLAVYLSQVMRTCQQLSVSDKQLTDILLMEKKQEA
Test: TNP-ATP displacement fluorescence, one-site competitive fit
Assay type: binding
Settings: read-out: Kd^ATP; 2 μM protein; 2.5 μM TNP-ATP; no DNA; 37 °C; competitive with TNP-ATP

pKd: 4.14
Structure (SMILES): Nc1ncnc2c1ncn2[C@@H]1O[C@H](COP(=O)(O)OP(=O)(O)OP(=O)(O)O)[C@@H](O)[C@H]1O [ATP]
